The text below walks through data of US20030096831A1, “Ocular growth and nicotinic antagonists” (priority 2000, published 2003).

Series [1] concerns goggled eyes (form-deprivation myopia). Briefly: Form-deprivation myopia in unilaterally goggled chicks, intravitreal drug for one week. Particulars: for axial length measured by digital calipers, goggled eyes, drug effect / axial length measured by ultrasound, goggled eyes, drug effect / equatorial diameter measured by calipers (equatorial expansion of vitreous cavity), goggled eyes, drug effect / vitreous cavity length measured by ultrasound, goggled eyes, drug effect / refraction of goggled eyes (myopic refractive error), drug effect: difference goggled vs contralateral open eye, ANOVA over all doses.

Series [2] concerns chick eye (intraocular muscles, refraction, ocular dimensions). The series is described as follows: Acute drug effects after a single intravitreal injection (pupil, refractometry, ultrasonography). It counts as in vivo, chicks. Here is the method:
Acute drug effects. To assess acute drug effects, other two-week old chicks (n=5/group) received a single unilateral intravitreal injection of one of the nicotinic antagonists at doses chosen based on drug effects on the growth of goggled eyes: 200 μg chlorisondamine, 50 μg and 1 μg mecamylamine, 5 μg methyllycaconitine or […] dihydro-β-erythroidine. Just before and at two hours and 24 hours after injection, both eyes were examined by refractometry and ultrasonography by the above methods.

The subject of series [3] is retina, retinal pigment epithelium, choroid. Briefly: Histopathological effects on goggled and never-goggled eyes. Format: in vivo, chicks. The conditions noted are these: 200 or 50 μg daily, one week; goggled and non-goggled eyes. Here is the method:
Histopathological effects. To identify potential histopathologic effects in other groups of monocularly deprived or never-goggled one-week old chicks, chlorisondamine (200 or 100 μg every other day; n=5-6/group), mecamylamine (200 or 50 μg daily; n=5-8/group) or saline vehicle (n=3-9/group) was administered by intravitreal injection to the goggled eyes or to one of the open eyes of never-goggled chicks with vehicle to the contralateral eye, using the identical protocol as above. After one week of treatment, the above protocols provided refraction, ultrasound and caliper measurements. The eyes were then immersion fixed in 3% glutaraldehyde/0.5% paraformaldehyde in 0.1M phosphate buffer, pH 7.4. The posterior segments were either embedded in paraffin, cut at 5 μm thickness and stained with hematoxylin and eosin, or embedded in historesin, cut at 3 μm or 5 μm thickness and stained with 0.5% azure II/0.5% methylene blue in 1% borate.

For a further series, the system named is non-goggled eyes. The series is described as follows: Eye growth and refraction of non-goggled (open) eyes, intravitreal drug for one week. Particulars: daily intravitreal injections, one week, doses of 50, 10 or 1 μg.
Where [4] appears, read: intravitreal, one week, hydrobromide.
Where [5] appears, read: intravitreal, one week, listed as Dihydro-β-erythroidine, hydrobromide.
[6] abbreviates: goggled chicks, P<0.05, dose groups that differ.
Where [7] appears, read: two hours after single intravitreal injection of 50 μg.

The structures appear in SMILES notation. Several values for one entry are separate records, joined by “and”; a condition that tells them apart may be missing. Equal entries are not always repeated. Entries after “also recorded” stand apart in the source; their conditions may differ. Structures can show the parent of a compound that is named as a salt.

`Br.COC1CC=C2CCN3CCC4=C(CC(=O)OC4)C23C1` (stereo not drawn) [dihydro-β-erythroidine, dihydro-β-crythroidine hydrobromide]: in series [1] (intravitreal, one week), the “axial length measured by digital calipers, goggled eyes, drug effect” value is “significant reduction”; the “axial length measured by ultrasound, goggled eyes, drug effect” value was “none of the differences in refraction, ultrasound measurements or caliper measurements of the equatorial diameter reached statistical significance”; the “equatorial diameter measured by calipers (equatorial expansion of vitreous cavity), goggled eyes, drug effect” value is recorded as “none of the differences in refraction, ultrasound measurements or caliper measurements of the equatorial diameter reached statistical significance”; the “vitreous cavity length measured by ultrasound, goggled eyes, drug effect” value is recorded as “none of the differences in refraction, ultrasound measurements or caliper measurements of the equatorial diameter reached statistical significance”. Also, in series [1] (setting [4]), the “refraction of goggled eyes (myopic refractive error), drug effect” value is listed as “had no effect on the refraction of visually deprived eyes” and the “overall effect on excessive ocular growth / experimental myopia of goggled eyes” value was “weaker as only the axial measurements by calipers showed a statistically significant drug effect”. Further, in series [1] (setting [5]), the “refraction of goggled eyes (myopic refractive error), drug effect” value is recorded as “none of the differences in refraction, ultrasound measurements or caliper measurements of the equatorial diameter reached statistical significance” and the “overall effect on excessive ocular growth / experimental myopia of goggled eyes” value is “only a weak effect against experimental myopia”. In series [1] (setting [6]), the “Caliper measurements axial length: statistically significant post hoc pairwise comparisons (Tukey test)” value is “no individual drug dose was identified”. In series [2] (setting [7]), the “pupil diameter, change from baseline” value is 1.0±0.1 mm.

With `CNC1(C)C2CCC(C2)C1(C)C` (centres unmarked) [mecamylamine], the “retinas, gross and histological appearance” value in series [3] was “indistinguishable grossly or histologically from vehicle treated control eyes”. In addition, in the series with non-goggled eyes, the “growth or refraction of non-goggled eyes” value is recorded as “no influence”. Also, in series [1] (50 μg daily intravitreal, one week), the “induced myopia (refraction) of goggled eyes at the 50 μg dose” value was “virtually eliminated the induced myopia”. Further, in series [1] (intravitreal, one week), the “axial length measured by digital calipers, goggled eyes, drug effect” value is recorded as “no statistical effect”; the “axial length measured by ultrasound, goggled eyes, drug effect” value is on record as “only a trend towards a drug effect”; the “equatorial diameter measured by calipers (equatorial expansion of vitreous cavity), goggled eyes, drug effect” value is given as “influenced”; the “refraction of goggled eyes (myopic refractive error), drug effect” value is recorded as “altered refraction of goggled eyes; also recorded: influenced the myopic refraction occurring beneath a goggle”. Also, in series [1] (intravitreal, one week), the “vitreous cavity length measured by ultrasound, goggled eyes, drug effect” value is “influenced the ultrasound measurements of vitreous cavity length”; the “overall effect on excessive ocular growth / experimental myopia of goggled eyes” value was “multiphasic response that differed between the low and high drug doses; also recorded: reduced the excessive ocular growth occurring beneath a goggle”. For the same compound, in series [1] (setting [6]), the “Caliper measurements equatorial diameter: statistically significant post hoc pairwise comparisons (Tukey test)” value was “did not identify any individual doses that differed from the controls”; the “Ultrasound measurements vitreous cavity depth: statistically significant post hoc pairwise comparisons (Tukey test)” value was determined as 50 μg vs. 1 μg; the “refraction: statistically significant post hoc pairwise comparisons (Tukey test)” value was “only the 50 μg dose differed significantly from the controls and 200 μg vs. 1 μg and 100 μg vs. 1 μg”. The “Ultrasound measurements vitreous cavity depth: statistically significant post hoc pairwise comparisons (Tukey test)” value in series [1] (goggled chicks, P<0.05, dose groups that differ, listed as Mecamylamine) is listed as “the 1 μg dose as different from the 50 μg dose but not from the controls”. In addition, in series [1] (lowest doses (1 and 10 μg) daily intravitreal), the “growth and myopic refractive shift of goggled eyes at the lowest doses” value was “tended toward stimulating the growth and myopic refractive shift of goggled eyes”. Further, the “pupil diameter, change from baseline” value in series [2] (24 hours after single intravitreal injection of 50 μg) was found to be 0.4±0.1 mm. Further, the “pupil diameter, change from baseline” value in series [2] (two hours after single intravitreal injection of 1 μg) turned out to be 0.8±0.2 mm. The “pupil diameter, change from baseline” value in series [2] (setting [7]) stood at 0.3±0.1 mm.

As to `CCN1C[C@]2(COC(=O)c3ccccc3N3C(=O)C[C@H](C)C3=O)CC[C@H](OC)[C@@]34[C@@H]5C[C@H]6[C@H](OC)[C@@H]5[C@](O)(C[C@@H]6OC)[C@](O)([C@@H](OC)[C@H]23)[C@@H]14` [methyllycaconitine, methyllcaconitine citrate], the “anterior chamber depth of goggled eyes, drug effect” value in series [1] (intravitreal, one week, ANOVA) was “no effect”. Further, in series [2] (two hours after single intravitreal injection of 5 μg), the “pupil diameter, change from baseline” value was determined as 0.4±0.2 mm.
